The values that follow come from patent US20060135773A1, “Trisubstituted nitrogen modulators of tyrosine phosphatases” (priority 2004, published 2006).

A value given as a limit tells only on which side of the number the result lay.

In the experiment the target is T1, PTP-1B (Homo sapiens, UniProt P18031).
T1 construct: PTP-1B (purified, 1 mg/mL) as a 1:250 dilution
T1 sequence (P18031 1-321 limits assumed): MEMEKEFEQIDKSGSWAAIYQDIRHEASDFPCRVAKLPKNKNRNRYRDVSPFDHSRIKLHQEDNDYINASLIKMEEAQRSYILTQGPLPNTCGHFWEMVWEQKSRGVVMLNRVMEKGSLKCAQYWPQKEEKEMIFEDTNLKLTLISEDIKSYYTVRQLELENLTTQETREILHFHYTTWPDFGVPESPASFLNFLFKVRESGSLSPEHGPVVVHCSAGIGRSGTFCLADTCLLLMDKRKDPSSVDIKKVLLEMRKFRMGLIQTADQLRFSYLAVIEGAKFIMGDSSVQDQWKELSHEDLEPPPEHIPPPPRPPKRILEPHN
The experiment in a line: pNPP tyrosine phosphatase inhibition assay, PTP-1B. The note with it: pNPP assay, PTP-1B; read-out: Activity Class (IC50 ranges). The format is biochemical. In a few lines: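 Test compounds were screened at two final levels, 31.3 and 10 µM, against 4 µg/mL purified PTP-1B. The substrate was 10 mM p-nitrophenyl phosphate, with incubation for 10 min at 30°C before a K2CO3 quench. Activity was taken from A405.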
As to “2,2-Dimethyl-propionic acid [(2-bromo-4-{[(4-methanesulfonyl-phenyl)-(2-methoxy-benzenesulfonyl)-amino]-methyl}-phenyl)-difluoro-methyl]-(2,2-dimethyl-propionyloxymethoxy)-phosphinoyloxymethyl ester [Compound 229]”, the IC50 is > 25 µM.

For the compound “3-[(4-{[(2-Methoxy-benzenesulfonyl)-naphthalen-1-ylmethyl-amino]-methyl}-phenyl)-oxalyl-amino]-butyric acid [Compound 225]”, the half-inhibitory concentration (IC50) is > 25 µM.

As to `COc1ccccc1S(=O)(=O)N(Cc1ccc(-c2ccc(Cl)c(C(=O)NO)c2)cc1)Cc1ccc(C(F)(F)P(=O)(O)O)c(Cl)c1` [Compound 181, [(2-Chloro-4-{[(4′-chloro-3′-hydroxycarbamoyl-biphenyl-4-ylmethyl)-(2-methoxy-benzenesulfonyl)-amino]-methyl}-phenyl)-difluoro-methyl]-phosphonic acid], the IC50 was < 0.099 µM.

Consider `O=P(O)(O)C(F)(F)c1ccc(CN(Cc2ccc(C(F)(F)P(=O)(O)O)cc2)S(=O)(=O)c2ccccc2)cc1` [Compound 60, {[4-({Benzenesulfonyl-[4-(difluoro-phosphono-methyl)-benzyl]-amino}-methyl)-phenyl]-difluoro-methyl}-phosphonic acid], for which the 50% inhibitory concentration (IC50) lay within 0.25 to 0.499 µM.

Turning to `COc1ccccc1S(=O)(=O)N(Cc1ccc(C(F)(F)P(=O)(O)O)cc1)Cc1ccc(C(F)(F)P(=O)(O)O)cc1` [Compound 85, [(4-{[[4-(Difluoro-phosphono-methyl)-benzyl]-(2-methoxy-benzenesulfonyl)-amino]-methyl}-phenyl)-difluoro-methyl]-phosphonic acid], the IC50 is 0.25 to 0.499 µM.

Turning to “2-(3-{4-[({[4-(difluorophosphonomethyl)-3-chlorophenyl]methyl}[(2-methoxyphenyl)sulfonyl]amino)methyl]phenyl}phenyl)acetic acid [Compound 193]”, the half-inhibitory concentration (IC50) was < 0.099 µM.

As to `COc1ccccc1S(=O)(=O)N(Cc1ccc(-c2ccc(C(=O)O)c(F)c2)cc1)Cc1ccc(C(F)(F)P(=O)(O)O)c(Cl)c1` [Compound 177, 4′-{[[3-Chloro-4-(difluoro-phosphono-methyl)-benzyl]-(2-methoxy-benzenesulfonyl)-amino]-methyl}-3-fluoro-biphenyl-4-carboxylic acid], the half-maximal inhibitory concentration (IC50) was < 0.099 µM.

For `COc1ccccc1S(=O)(=O)N(Cc1ccc(C#N)cc1)Cc1ccc(NC(=O)C(=O)O)c(C(=O)O)c1` [Compound 133], the IC50 was > 25 µM.

Consider `COc1ccccc1S(=O)(=O)N(Cc1ccc(-c2ccc(Cl)c(C(=O)O)c2)cc1)Cc1ccc(C(F)(F)P(=O)(O)O)c(Cl)c1` [Compound 176, 4-Chloro-4′-{[[3-chloro-4-(difluoro-phosphono-methyl)-benzyl]-(2-methoxy-benzenesulfonyl)-amino]-methyl}-biphenyl-3-carboxylic acid], for which the IC50 is < 0.099 µM.

As to `COc1ccccc1S(=O)(=O)N(Cc1ccc(C(F)(F)P(=O)(O)O)c(Cl)c1)Cc1ccccc1-c1ccccc1` [Compound 168, [(4-{[Biphenyl-2-ylmethyl-(2-methoxy-benzenesulfonyl)-amino]-methyl}-2-chloro-phenyl)-difluoro-methyl]-phosphonic acid], the IC50 was in the range of 0.1 to 0.249 µM.

On to `COc1ccccc1S(=O)(=O)N(Cc1ccc(-c2ccc(O)c(C(=O)O)c2)cc1)Cc1ccc(OCC(=O)O)c(Cl)c1` [Compound 222, 4′-{[(4-Carboxymethoxy-3-chloro-benzyl)-(2-methoxy-benzenesulfonyl)-amino]-methyl}-4-hydroxy-biphenyl-3-carboxylic acid], for which the IC50 was > 25 µM.

Consider “{[4-(difluorophosphonomethyl)-3-chlorophenyl]methyl}(cyclohexylmethyl)[(2-methoxyphenyl)sulfonyl]amine [Compound 203]”, for which the IC50 was in the range of 0.25 to 0.499 µM.

“[(2-Chloro-4-{[(2-chloro-4-fluoro-benzenesulfonyl)-(3′-cyano-biphenyl-4-ylmethyl)-amino]-methyl}-phenyl)-difluoro-methyl]-phosphonic acid [Compound 164]”: the IC50 was < 0.099 µM.

Usually IC50 stands for the point on the concentration scale where inhibition reaches its midpoint.
